Data published in article PMC10700596 (Nature Communications, 2023).

Experiments:
wild-type EP4R = wild-type EP4R (Homo sapiens, UniProt P35408); assay: cell-based
[1] = target: T1, prostaglandin D2 (PGD2) receptor (Homo sapiens, UniProt Q9Y5Y4); assay: Functional cAMP production assay, PGD2 receptor; type: cell-based
T1 sequence (Q9Y5Y4 1-395): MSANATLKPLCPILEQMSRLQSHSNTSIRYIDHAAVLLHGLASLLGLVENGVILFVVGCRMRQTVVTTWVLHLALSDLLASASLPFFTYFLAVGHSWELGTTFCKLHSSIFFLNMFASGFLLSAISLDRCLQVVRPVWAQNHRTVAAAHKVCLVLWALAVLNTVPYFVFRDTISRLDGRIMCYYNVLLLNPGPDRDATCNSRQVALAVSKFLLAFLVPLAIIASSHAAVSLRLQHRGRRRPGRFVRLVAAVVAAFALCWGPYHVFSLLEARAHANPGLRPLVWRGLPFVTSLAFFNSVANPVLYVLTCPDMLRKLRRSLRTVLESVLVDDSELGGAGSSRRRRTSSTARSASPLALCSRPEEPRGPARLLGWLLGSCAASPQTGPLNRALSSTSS

CDK3 = CDK3 (Homo sapiens, UniProt Q00526); assay: biochemical; type: binding; details: 10000 nM; read-out: Percent Control
Chain of CDK3 (Q00526 whole entry): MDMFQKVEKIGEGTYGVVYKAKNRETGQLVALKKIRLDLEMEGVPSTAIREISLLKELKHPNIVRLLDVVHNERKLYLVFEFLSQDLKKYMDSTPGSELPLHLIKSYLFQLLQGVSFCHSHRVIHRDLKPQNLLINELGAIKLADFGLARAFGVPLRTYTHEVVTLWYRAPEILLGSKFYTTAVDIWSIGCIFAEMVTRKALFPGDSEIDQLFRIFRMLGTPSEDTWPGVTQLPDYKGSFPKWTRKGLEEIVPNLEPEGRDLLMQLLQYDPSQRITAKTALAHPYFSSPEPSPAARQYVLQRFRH

ERBB4 = ERBB4 (Homo sapiens, UniProt Q15303); assay: biochemical; type: binding; details: 10000 nM; read-out: Percent Control
Chain of ERBB4 (Q15303 26-1308): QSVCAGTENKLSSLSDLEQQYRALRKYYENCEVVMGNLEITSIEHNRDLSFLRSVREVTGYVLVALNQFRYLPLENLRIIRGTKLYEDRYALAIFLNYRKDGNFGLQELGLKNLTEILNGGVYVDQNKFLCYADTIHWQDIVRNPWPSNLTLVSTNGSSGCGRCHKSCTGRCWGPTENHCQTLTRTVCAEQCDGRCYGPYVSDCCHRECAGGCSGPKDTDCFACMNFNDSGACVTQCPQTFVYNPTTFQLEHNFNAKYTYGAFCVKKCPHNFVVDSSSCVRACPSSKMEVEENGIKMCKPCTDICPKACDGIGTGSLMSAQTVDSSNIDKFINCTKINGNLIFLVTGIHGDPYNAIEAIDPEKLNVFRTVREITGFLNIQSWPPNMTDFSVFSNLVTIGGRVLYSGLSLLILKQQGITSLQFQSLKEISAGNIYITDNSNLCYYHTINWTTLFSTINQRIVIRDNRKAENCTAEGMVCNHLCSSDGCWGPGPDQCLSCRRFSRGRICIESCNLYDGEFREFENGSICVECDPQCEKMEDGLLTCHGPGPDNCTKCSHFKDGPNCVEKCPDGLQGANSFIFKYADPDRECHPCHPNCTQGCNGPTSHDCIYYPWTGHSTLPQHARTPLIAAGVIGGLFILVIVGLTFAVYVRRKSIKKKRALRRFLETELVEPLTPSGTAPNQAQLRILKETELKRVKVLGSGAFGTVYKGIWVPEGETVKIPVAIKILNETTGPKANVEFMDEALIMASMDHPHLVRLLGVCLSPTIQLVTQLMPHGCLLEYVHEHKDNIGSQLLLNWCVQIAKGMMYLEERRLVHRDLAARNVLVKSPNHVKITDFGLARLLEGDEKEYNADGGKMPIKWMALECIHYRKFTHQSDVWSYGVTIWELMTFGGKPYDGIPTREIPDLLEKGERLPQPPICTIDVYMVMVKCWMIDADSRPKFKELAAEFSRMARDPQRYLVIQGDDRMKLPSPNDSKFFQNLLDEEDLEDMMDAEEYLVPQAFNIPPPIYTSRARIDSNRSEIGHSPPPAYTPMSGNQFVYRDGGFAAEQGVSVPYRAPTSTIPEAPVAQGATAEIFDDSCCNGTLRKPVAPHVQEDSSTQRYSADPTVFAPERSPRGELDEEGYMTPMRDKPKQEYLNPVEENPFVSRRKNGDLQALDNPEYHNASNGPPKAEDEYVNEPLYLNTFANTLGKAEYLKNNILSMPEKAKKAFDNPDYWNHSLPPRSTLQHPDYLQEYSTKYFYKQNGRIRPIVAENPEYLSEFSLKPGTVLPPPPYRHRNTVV

mice = type: in vivo; details: absence of injury

Chain of wild-type EP4R (P35408 whole entry): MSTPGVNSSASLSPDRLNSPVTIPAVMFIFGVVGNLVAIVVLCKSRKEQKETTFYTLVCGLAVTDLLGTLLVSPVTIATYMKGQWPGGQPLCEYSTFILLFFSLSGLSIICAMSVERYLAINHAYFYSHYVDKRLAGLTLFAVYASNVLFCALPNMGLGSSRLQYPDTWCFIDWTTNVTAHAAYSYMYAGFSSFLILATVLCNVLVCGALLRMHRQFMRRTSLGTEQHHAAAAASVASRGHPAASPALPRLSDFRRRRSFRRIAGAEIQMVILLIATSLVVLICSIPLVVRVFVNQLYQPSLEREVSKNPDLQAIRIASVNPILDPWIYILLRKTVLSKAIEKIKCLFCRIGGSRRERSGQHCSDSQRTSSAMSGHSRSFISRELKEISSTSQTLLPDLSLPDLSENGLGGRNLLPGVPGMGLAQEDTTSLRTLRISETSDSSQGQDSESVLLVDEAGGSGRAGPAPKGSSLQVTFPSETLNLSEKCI

SMILES | IC50 (wild-type EP4R) [nM] | mode of antagonism by Schild analysis (wild-type EP4R) | Ki (wild-type EP4R; calculated using the Cheng Prusoff equation, read-out: Arrestin-BRET Ki*) [nM] | off-target activity at prostaglandin D2 receptor [1] | remaining activity at 10 µM (CDK3) [%] | remaining activity at 10 µM (ERBB4) [%] | effect on baseline mechanical thresholds (mice)
O=C(O)C1CCC2(CC1)CC(Nc1ncnc3[nH]c4c(F)cccc4c13)C2 (stereo not shown) [Compound 74, OC(=O)C1CCC2(CC(C2)NC=3N=CN=C4NC=5C(F)=CC=CC5C34)CC1] | 78.9 | competitive antagonism | 15.6 | no off-target activities | 100 | 99 | –
O=C([O-])C1CCC2(CC1)CC(Nc1ncnc3[nH]c4c(F)cccc4c13)C2.[Na+] (stereo not shown) [Compound 77, [Na+].[O-]C(=O)C1CCC2(CC(C2)NC=3N=CN=C4NC=5C(F)=CC=CC5C34)CC1] | – | – | – | – | – | – | no effect
